Measurements reported in ChEMBL document CHEMBL4342517, “Design, Synthesis, and Mechanism Study of Benzenesulfonamide-Containing Phenylalanine Derivatives as Novel HIV-1 Capsid Inhibitors with Improved Antiviral Activities” (J Med Chem, 2020).
Activity calls are given as the source filed them. No cut-off for these calls is given here.

How the values were obtained:
TZM = assay: Cytotoxicity in uninfected human TZM-bl assessed as reduction in cell viability incubated for 1 day by Cyto-tox-Glo cytotoxicity assay; type: cell-based; settings: 24 h
[1] = test system: Human immunodeficiency virus 1; assay: Antiviral activity against HIV1 NL4-3 infected in human TZM-bl cells assessed as reduction in virus induced cytopathogenicity incubated for 1 day by luciferase reporter gene assay; type: functional, organism-based; settings: Human immunodeficiency virus 1, NL4-3, TZM-bl, 24 h
[2] = molecular target: T1, Structural capsid protein (Human immunodeficiency virus 1, UniProt Q76129); assay: Binding affinity to HIV1 NL4-3 capsid protein hexamer by SPR analysis
[3] = molecular target: T1, Structural capsid protein; assay: Binding affinity to HIV1 NL4-3 capsid protein monomer by SPR analysis
[4] = test system: Human immunodeficiency virus 1; assay: Antiviral activity against HIV1 3B infected in human MT4 cells assessed as reduction in virus-induced cell death incubated for 5 days by MTT assay; type: functional, organism-based; settings: Human immunodeficiency virus 1, 3B, MT4, 120 h
[5] = test system: Human immunodeficiency virus 2; assay: Antiviral activity against HIV2 ROD infected in human MT4 cells assessed as reduction in virus-induced cell death incubated for 5 days by MTT assay; settings: Human immunodeficiency virus 2, ISOLATE ROD, MT4, 120 h
MT4 = assay: Cytotoxicity in mock-infected human MT4 assessed as reduction in cell viability incubated for 5 days by MTT assay; type: cell-based; settings: mt4, 120 h
[6] = test system: Human immunodeficiency virus 1; assay: Antiviral activity against HIV1 Env-pseudotyped virus in human U87.CD4.CCR5 target cells assessed as reduction in viral infection at late stage; type: functional, organism-based; settings: Human immunodeficiency virus 1, U87/CD4/CCR5
[7] = molecular target: Structural capsid protein (Human immunodeficiency virus 1) (UniProt Q76129); assay: Induction of HIV1 NL4-3 capsid protein assembly at 50 uM measured every 1 min for 19 mins
[8] = test system: Human immunodeficiency virus 1; assay: Induction of increase in CA/p24 content in HIV1 NL4-3 infected in human TZM-bl cells at 10 uM by ELISA relative to control; type: functional
[9] = Stability in human plasma assessed as compound remaining level at 2 uM incubated for 120 mins at 37 degC by LC-MS/MS analysis; type: ADME, cell-free; settings: 2 h
[10] = human, microsomes
Description: Intrinsic clearance in human liver microsomes in presence of NADPH regenerating system by LC-MS/MS analysis

[11] = test system: Human immunodeficiency virus 1; assay: Antiviral activity against HIV1 Env-pseudotyped virus in human U87.CD4.CCR5 target cells assessed as reduction in viral infection at early stage; type: functional, organism-based; settings: Human immunodeficiency virus 1, U87/CD4/CCR5
[12] = molecular target: Structural capsid protein (Human immunodeficiency virus 1) (UniProt Q76129); assay: Inhibition of HIV1 NL4-3 capsid protein assembly at 50 uM measured every 1 min for 19 mins
[13] = human, microsomes; remark: listed apart in the source
Description: Half life in human liver microsomes in presence of NADPH regenerating system by LC-MS/MS analysis

T1 sequence (Q76129 whole entry): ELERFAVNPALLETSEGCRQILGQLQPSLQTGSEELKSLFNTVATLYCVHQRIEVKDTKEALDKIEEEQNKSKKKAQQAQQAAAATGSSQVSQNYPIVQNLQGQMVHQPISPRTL
Sequence of Structural capsid protein (Human immunodeficiency virus 1) (Q76129 as listed by the source): as the sequence (Q76129 whole entry) above

SMILES	CC50 (TZM)	EC50 [1]	also measured
COc1ccc(N(C)C(=O)[C@H](Cc2ccccc2)NC(=O)CN2CCN(S(=O)(=O)c3ccc(Br)cc3)CC2=O)cc1	> 31.1 µM	0.36 µM	
COc1ccc(N(C)C(=O)[C@H](Cc2ccccc2)NC(=O)CNS(=O)(=O)c2cc(C)cc(C)c2)cc1	> 39.2 µM	9.22 µM	
COc1ccc(N(C)C(=O)[C@H](Cc2ccccc2)NC(=O)CN2C(=O)Nc3ccc(C)cc3S2(=O)=O)cc1	> 37.3 µM	5.96 µM	
COc1ccc(N(C)C(=O)[C@H](Cc2ccccc2)NC(=O)CNS(=O)(=O)c2ccc(OC)cc2)cc1	> 39.1 µM	10.4 µM	
COc1ccc(N(C)C(=O)[C@H](Cc2ccccc2)NC(=O)CNS(=O)(=O)c2ccc(Cl)cc2)cc1	> 38.8 µM	9.88 µM	
COc1ccc(N(C)C(=O)[C@H](Cc2ccccc2)NC(=O)CNS(=O)(=O)c2ccccc2F)cc1	> 40 µM	10.8 µM	
COc1ccc(N(C)C(=O)[C@H](Cc2ccccc2)NC(=O)CN2C(=O)N(CC(=O)N[C@@H](Cc3ccccc3)C(=O)N(C)c3ccc(OC)cc3)S(=O)(=O)c3cc(F)ccc32)cc1	> 23.1 µM	3.82 µM	Kd [2]: 1.3 µM; Kd [3]: 0.2 µM
COc1ccc(N(C)C(=O)[C@H](Cc2ccccc2)NC(=O)CN2CCN(S(=O)(=O)c3ccc(Cl)cc3)CC2=O)cc1	> 33.4 µM	1.05 µM	
COc1ccc(N(C)C(=O)[C@H](Cc2ccccc2)NC(=O)CNS(=O)(=O)c2ccc(N)cc2)cc1	> 40.3 µM	6.65 µM	
COc1ccc(N(C)C(=O)[C@H](Cc2ccccc2)NC(=O)CN2CCN(S(=O)(=O)c3ccc(OC)cc3)CC2=O)cc1	> 33.6 µM	0.64 µM	
COc1ccc(N(C)C(=O)[C@H](Cc2ccccc2)NC(=O)CNS(=O)(=O)c2ccc(Br)cc2)cc1	> 35.7 µM	8.21 µM	
COc1ccc(N(C)C(=O)[C@H](Cc2ccccc2)NC(=O)CNS(=O)(=O)c2ccc(F)cc2)cc1	> 40 µM	6.81 µM	
COc1ccc(N(C)C(=O)[C@H](Cc2ccccc2)NC(=O)CN2CCN(S(=O)(=O)c3ccc([N+](=O)[O-])cc3)CC2=O)cc1	> 32.8 µM	0.3 µM	EC50 [4]: 4.9 µM; EC50 [5]: 0.16 µM; CC50 (MT4): 8.89 µM
COc1ccc(N(C)C(=O)[C@H](Cc2ccccc2)NC(=O)CN2CCN(S(=O)(=O)c3ccccc3)CC2=O)cc1	> 35.4 µM	0.37 µM	EC50 [4]: 0.71 µM; EC50 [5]: 0.032 µM; CC50 (MT4): 109 µM
COc1ccc(N(C)C(=O)[C@H](Cc2ccccc2)NC(=O)CN2CCN(S(=O)(=O)c3cccc(N)c3)CC2=O)cc1	> 34.5 µM	0.33 µM	Kd [2]: 3.02 µM; Kd [3]: 10 µM
COc1ccc(N(C)C(=O)[C@H](Cc2ccccc2)NC(=O)CNS(=O)(=O)c2ccccc2)cc1	> 41.5 µM	6.23 µM	
COc1ccc(N(C)C(=O)[C@H](Cc2ccccc2)NC(=O)CN2CCN(S(=O)(=O)c3cccc([N+](=O)[O-])c3)CC2=O)cc1	> 32.8 µM	0.67 µM	
COc1ccc(N(C)C(=O)[C@H](Cc2ccccc2)NC(=O)CN2C(=O)Nc3ccc(OC)cc3S2(=O)=O)cc1	> 36.2 µM	4.89 µM	
Cc1[nH]c2ccccc2c1CC(=O)N[C@@H](Cc1ccccc1)C(=O)N(C)c1ccccc1	> 47 µM		IC50 [6]: 0.23 µM; Activity [7]: Active; Activity [8]: 40%; Stability [9]: 69%; CC50 (MT4): 145 µM; CLH [10]: 1080.3 µL/min/mg; IC50 [11]: 0.056 µM

SMILES	CC50 (TZM)	EC50 [1]	also measured
COc1ccc(N(C)C(=O)[C@H](Cc2ccccc2)NC(=O)CNS(=O)(=O)c2cccc(N)c2)cc1	> 40.3 µM	8.26 µM	
COc1ccc(N(C)C(=O)[C@H](Cc2ccccc2)NC(=O)CN2C(=O)Nc3ccccc3S2(=O)=O)cc1	> 38.3 µM	2.11 µM	IC50 [6]: 2.44 µM; inhibition [12]: Active; EC50 [4]: 6.07 µM; EC50 [5]: 2.72 µM; CC50 (MT4): 130 µM; IC50 [11]: 1.94 µM
COc1ccc(N(C)C(=O)[C@H](Cc2ccccc2)NC(=O)CNS(=O)(=O)c2c(C(C)C)cc(C(C)C)cc2C(C)C)cc1	> 32.9 µM	7.9 µM	
COc1ccc(N(C)C(=O)[C@H](Cc2ccccc2)NC(=O)CN2CCN(S(=O)(=O)c3ccccc3F)CC2=O)cc1	> 34.3 µM	0.48 µM	
COc1ccc(N(C)C(=O)[C@H](Cc2ccccc2)NC(=O)CNS(=O)(=O)c2ccccc2[N+](=O)[O-])cc1	> 38 µM	8.74 µM	
COc1ccc(N(C)C(=O)[C@H](Cc2ccccc2)NC(=O)CN2CCN(S(=O)(=O)c3ccccc3N)CC2=O)cc1	> 34.5 µM	0.54 µM	
COc1ccc(N(C)C(=O)[C@H](Cc2ccccc2)NC(=O)CNS(=O)(=O)c2ccc(C)cc2)cc1	> 40.4 µM	6.26 µM	
COc1ccc(N(C)C(=O)[C@H](Cc2ccccc2)NC(=O)CN2CCN(S(=O)(=O)c3ccc(C)cc3)CC2=O)cc1	> 34.6 µM	0.5 µM	
COc1ccc(N(C)C(=O)[C@H](Cc2ccccc2)NC(=O)CNS(=O)(=O)c2cccc(F)c2)cc1	> 40 µM	5.61 µM	IC50 [6]: 4.2 µM; inhibition [12]: Active; EC50 [4]: 24.5 µM; EC50 [5]: 20.1 µM; CC50 (MT4): 136 µM; IC50 [11]: 8.22 µM
COc1ccc(N(C)C(=O)[C@H](Cc2ccccc2)NC(=O)CNS(=O)(=O)c2c(C)cc(C)cc2C)cc1	> 38.2 µM	10.7 µM	
COc1ccc(N(C)C(=O)[C@H](Cc2ccccc2)NC(=O)CNS(=O)(=O)c2ccccc2N)cc1	> 40.3 µM	9.06 µM	
COc1ccc(N(C)C(=O)[C@H](Cc2ccccc2)NC(=O)CN2C(=O)N(CC(=O)N[C@@H](Cc3ccccc3)C(=O)N(C)c3ccc(OC)cc3)S(=O)(=O)c3cc(Cl)ccc32)cc1	> 22.7 µM	4.77 µM	
COc1ccc(N(C)C(=O)[C@H](Cc2ccccc2)NC(=O)CN2C(=O)N(CC(=O)N[C@@H](Cc3ccccc3)C(=O)N(C)c3ccc(OC)cc3)S(=O)(=O)c3cc(Br)ccc32)cc1	> 21.6 µM	5.62 µM	
COc1ccc(N(C)C(=O)[C@H](Cc2ccccc2)NC(=O)CN2CCN(S(=O)(=O)c3cccc(F)c3)CC2=O)cc1	> 34.3 µM	0.45 µM	
COc1ccc(N(C)C(=O)[C@H](Cc2ccccc2)NC(=O)CNS(=O)(=O)c2ccc([N+](=O)[O-])cc2)cc1	> 38 µM	> 38 µM	
O=C(O)Cc1ccccc1Nc1c(Cl)cccc1Cl [DICLOFENAC]			t1/2 [13]: 14.8 min; CLH [10]: 93.6 µL/min/mg
COc1ccc(N(C)C(=O)[C@H](Cc2ccccc2)NC(=O)CN2CCN(S(=O)(=O)c3ccccc3[N+](=O)[O-])CC2=O)cc1		1 µM	
COc1ccc(N(C)C(=O)[C@H](Cc2ccccc2)NC(=O)CNS(=O)(=O)c2cccc([N+](=O)[O-])c2)cc1	> 38 µM	8.93 µM	
COc1ccc(N(C)C(=O)[C@H](Cc2ccccc2)NC(=O)CN2CCN(S(=O)(=O)c3ccc(F)cc3)CC2=O)cc1	25.7 µM	1.06 µM	
